Experimental findings from publication PMC7494392 (Journal of Pain Research, 2020) are described below.

The target in this experiment is TRPV1 (Rattus norvegicus, UniProt O35433). In words: Fura-2 calcium imaging in rat DRG neurons. The experiment is classed as cell-based.
Sequence of TRPV1 (O35433 whole entry): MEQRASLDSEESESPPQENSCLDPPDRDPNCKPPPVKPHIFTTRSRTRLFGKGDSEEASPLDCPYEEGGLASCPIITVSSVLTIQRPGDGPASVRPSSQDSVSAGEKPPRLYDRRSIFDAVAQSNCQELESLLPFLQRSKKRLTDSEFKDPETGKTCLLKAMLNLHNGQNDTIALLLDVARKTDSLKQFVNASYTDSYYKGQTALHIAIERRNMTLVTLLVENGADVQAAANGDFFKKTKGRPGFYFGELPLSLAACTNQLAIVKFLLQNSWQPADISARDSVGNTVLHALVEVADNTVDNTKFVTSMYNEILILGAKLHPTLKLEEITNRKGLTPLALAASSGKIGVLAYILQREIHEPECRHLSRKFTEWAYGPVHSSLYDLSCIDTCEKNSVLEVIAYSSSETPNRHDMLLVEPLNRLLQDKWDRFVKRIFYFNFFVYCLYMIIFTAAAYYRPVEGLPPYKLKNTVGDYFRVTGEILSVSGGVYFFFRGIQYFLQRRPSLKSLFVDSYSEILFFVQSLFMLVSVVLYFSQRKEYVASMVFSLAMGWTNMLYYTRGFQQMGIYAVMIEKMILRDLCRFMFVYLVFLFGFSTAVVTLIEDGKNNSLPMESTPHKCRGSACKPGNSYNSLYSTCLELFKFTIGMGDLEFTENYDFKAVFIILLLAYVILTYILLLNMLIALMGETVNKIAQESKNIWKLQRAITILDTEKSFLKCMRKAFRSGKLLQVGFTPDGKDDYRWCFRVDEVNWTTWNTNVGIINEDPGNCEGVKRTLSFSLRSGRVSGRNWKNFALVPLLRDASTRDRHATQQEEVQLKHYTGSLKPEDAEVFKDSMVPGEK

As for `C=C(C)[C@@H]1CCC(C)=C[C@H]1c1c(O)cc(CCCCC)cc1O` [CBD, Cannabidiol], the EC50 was 1 to 10 µM.
